{"source": "patent US10905122B2", "about": "“Use of tetrazolinones for combating resistant phytopathogenic fungi on cereals” (BASF SE, priority 2016, dated 2021)", "type_in_all_cases": "cell-based", "key": {"[1]": {"system": "sensitive isolate of Septoria tritici", "experiment": "Microtiter test against leaf blotch on wheat, sensitive isolate of Septoria tritici", "conditions": "63 ppm, absorption at 405 nm 7 days after inoculation, 18° C.", "experimental": "(§1) Compound I according to the present invention is formulated separately as a stock solution having a concentration of 10000 ppm in dimethyl sulfoxide.\n(§2) The stock solution of compound I according to the present invention was mixed according to the ratio, pipetted onto a micro titer plate and diluted with water to the stated concentrations. A spore suspension of a sensitive and a QOI resistant isolate of Septoria tritici in an aqueous biomalt or yeast-bactopeptone-glycerine solution was then added. The plates were placed in a water vapor-saturated chamber at a temperature of 18° C. Using an absorption photometer, the MTPs were measured at 405 nm 7 days after the inoculation.\n(§3) Compound I according to the present invention and compound 1-213 from prior art (WO2013/092224) were formulated separately as a stock solution having a concentration of 10000 ppm in dimethyl sulfoxide. The stock solutions of compound I according to the present invention and compound 1-213 from prior art (WO2013/092224) were mixed according to the ratio, pipetted onto a micro titer plate and diluted with water to the stated concentrations. A spore suspension of a sensitive and a QOI resistant isolate of Septoria tritici in an aqueous biomalt or yeast-bactopeptone-glycerine solution was then added. […] Using an absorption photometer, the MTPs were measured at 405 nm 7 days after the inoculation."}, "[2]": {"system": "QOI resistant isolate of Septoria tritici", "experiment": "Microtiter test against leaf blotch on wheat, QOI resistant isolate of Septoria tritici", "conditions": "63 ppm, absorption at 405 nm 7 days after inoculation, 18° C.", "experimental": "as §1, §2, §3"}, "[3]": {"system": "sensitive isolate of Pyrenophora teres", "experiment": "Microtiter test against net blotch, sensitive isolate of Pyrenophora teres", "conditions": "Example 1B; 63 ppm; absorption at 405 nm 7 days after inoculation; 18° C.", "from_the_text": "as §1\nas §2, with “titer plate (MTP) and diluted” for “titer plate and diluted”, “isolate of Pyrenophora teres in an” for “isolate of Septoria tritici in an”"}, "[4]": {"system": "QOI resistant isolate of Pyrenophora teres", "experiment": "Microtiter test against net blotch, QOI resistant isolate of Pyrenophora teres", "conditions": "Example 1B; 63 ppm; absorption at 405 nm 7 days after inoculation; 18° C.", "from_the_text": "as §1\nas §2, with “titer plate (MTP) and diluted” for “titer plate and diluted”, “isolate of Pyrenophora teres in an” for “isolate of Septoria tritici in an”"}}}
{"smiles": "Cc1cccc(-n2nnn(C)c2=O)c1COc1ccn(-c2ccc(Cl)cc2)n1", "note": "[compound I, 1-[2-[[1-(4-chlorophenyl)pyrazol-3-yl]oxymethyl]-3-methyl-phenyl]-4-methyl-tetrazol-5-one]", "values": [{"measurement": "Growth (%) sensitive isolate of Septoria tritici", "setting": "[1]; Example 1A", "result": 0, "unit": "%"}, {"measurement": "Growth (%) sensitive isolate of Septoria tritici", "setting": "[1]; Example 2 comparative", "result": 0, "unit": "%"}, {"measurement": "Growth (%) QOI resistant isolate of Septoria tritici", "setting": "[2]; Example 1A", "result": 3, "unit": "%"}, {"measurement": "Growth (%) QOI resistant isolate of Septoria tritici", "setting": "[2]; Example 2 comparative", "result": 3, "unit": "%"}, {"measurement": "Growth (%) sensitive isolate of Pyrenophora teres.", "setting": "[3]", "result": 6, "unit": "%"}, {"measurement": "Growth (%) QOI resistant isolate of Pyrenophora teres", "setting": "[4]", "result": 6, "unit": "%"}]}
